This is an account of results in patent EP0215063B1, “PYRIDO (2,3-d )PYRIMIDIN DERIVATIVES” (priority 1985, dated 1986).

The target in one data set is T1, dihydrofolate reductase (Homo sapiens, UniProt P00374).
T1 sequence (P00374 1-187): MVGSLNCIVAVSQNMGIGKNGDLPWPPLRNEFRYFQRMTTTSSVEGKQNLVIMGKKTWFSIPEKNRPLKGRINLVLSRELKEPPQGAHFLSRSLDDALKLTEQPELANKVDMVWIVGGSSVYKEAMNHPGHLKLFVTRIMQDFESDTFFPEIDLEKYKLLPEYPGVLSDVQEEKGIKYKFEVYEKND
Particulars: literature (De Graw et al.); cited from earlier work.

The test system of data set [1] is L1210 murine leukemic cells. In words: Inhibition of L1210 murine leukemic cells in tissue culture. The class given is cell-based. Particulars: Mus musculus, read-out: IC₅₀.
Data set [2] addresses T2, Folate Polyglutamate Synthetase (Mus musculus, UniProt P48760).
T2 construct: Incubation with partially purified mouse liver FPGS; from tissue; host or cells: mouse liver
T2 sequence (P48760 43-587): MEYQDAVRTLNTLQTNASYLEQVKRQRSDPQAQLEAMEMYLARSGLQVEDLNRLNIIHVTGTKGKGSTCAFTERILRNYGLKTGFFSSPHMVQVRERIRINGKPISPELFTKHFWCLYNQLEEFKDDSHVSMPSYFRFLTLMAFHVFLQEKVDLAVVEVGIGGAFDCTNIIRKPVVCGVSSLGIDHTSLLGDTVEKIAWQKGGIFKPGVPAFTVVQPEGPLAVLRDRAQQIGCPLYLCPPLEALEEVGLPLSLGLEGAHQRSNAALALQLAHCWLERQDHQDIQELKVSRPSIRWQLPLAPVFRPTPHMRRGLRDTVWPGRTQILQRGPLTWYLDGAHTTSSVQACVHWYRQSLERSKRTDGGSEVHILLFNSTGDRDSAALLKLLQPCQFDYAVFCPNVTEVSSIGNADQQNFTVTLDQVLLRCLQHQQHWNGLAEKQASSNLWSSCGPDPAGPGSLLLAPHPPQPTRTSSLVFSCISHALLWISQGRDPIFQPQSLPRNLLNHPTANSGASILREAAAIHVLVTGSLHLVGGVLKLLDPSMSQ
Description: Substrate for Folate Polyglutamate Synthetase (partially purified mouse liver FPGS). The class given is biochemical.

The target of data set [3] is T3, Dihydrofolate Reductase (DHFR) (Homo sapiens, UniProt P00374).
T3 sequence (P00374 1-187): T1 sequence (P00374 1-187)
Description: Inhibition of Dihydrofolate Reductase (DHFR). The class given is biochemical.

For a further data set, the system named is mouse L1210 leukemia. Particulars: literature; cited from earlier work.
The subject of data set [4] is Methotrexate-Resistant L-1210 Leukemia. In words: Effect on Methotrexate-Resistant L-1210 Leukemia. The class given is in vivo. Conditions: for Mean Increased Life span in days: in vivo.
For data set [5] the following is noted: literature; cited from earlier work.
For data set [6], the target named is T2, Folate Polyglutamate Synthetase. Particulars: relative to folic acid; published data (Moran et al.); cited from earlier work.
The next data set relates to L-1210 leukemia. In words: Increase in life span, % ILS (Table 5, title only as image). It is filed as in vivo.
The conditions of data set [7]: literature (Taylor et al.); cited from earlier work.
A further data set deals with 6C3HED Lymphosarcoma. In words: Subcutaneous tumor growth inhibition in mice. Conditions: mouse, in vivo.
Data set [8] relates to X5563 Plasma Cell Myeloma. Conditions: mouse, in vivo.
The subject of another data set is B-16. Description: Subcutaneous tumor growth inhibition in mice. Conditions: mouse, in vivo.
A further data set deals with Lewis Lung Carcinoma. In words: Subcutaneous tumor growth inhibition in mice. Conditions: mouse, in vivo.
In data set [9] the test system is C3H Mammary Adenocarcinoma. In words: Subcutaneous tumor growth inhibition in mice. Conditions: mouse, in vivo.
For the next data set, the system named is Madison Lung. In words: Subcutaneous tumor growth inhibition in mice. Particulars: mouse, in vivo.
Where [10] appears, read: relative to folic acid, one hour at 37°C.

“And” between values parts separate entries of the source, which are not always exact repeats. Equal entries are not always repeated. Where two headings read alike, the source gives them in different places.

Turning to `Nc1nc2ccc(CCc3ccc(C(=O)N[C@@H](CCC(=O)O)C(=O)O)cc3)nc2c(=O)[nH]1` [8,10-Dideazafolic acid], on dihydrofolate reductase, the “effectiveness as a dihydrofolate reductase inhibitor (in words)” value was “only marginally effective”.
On to `Nc1nc(O)c2cc(CCc3ccc(C(=O)N[C@@H](CCC(=O)O)C(=O)O)cc3)cnc2n1` [Compound 2, N-(4-[2-(2-amino-4-hydroxypyrido[2,3-d]pyrimidin-6-yl)ethyl]benzoyl)-L-glutamic acid], for which the results for the IC50 in data set [1] and in data set [3] were more than 100000 nM and 49000 nM, respectively. Moreover, the “Rel Vmax” value in data set [2] (setting [10]) is 0.90 ± 0.10.
As to `Nc1nc2ccc(CCc3ccc(C(=O)N[C@@H](CCC(=O)O)C(=O)O)cc3)cc2c(=O)[nH]1` [5,8,10-trideazafolic acid], the “activity against mouse L1210 leukemia (in words)” value in the data set on mouse L1210 leukemia is listed as “only marginal activity”.
For the compound `CN(Cc1cnc2nc(N)nc(N)c2n1)c1ccc(C(=O)N[C@@H](CCC(=O)O)C(=O)O)cc1` [Methotrexate, methotrexate, reference compound], in data set [4] (dose 2 mg/kg), the “Mean Increased Life span” value was determined as 0 days.
Turning to `Nc1nc(N)c2cc(CCc3ccc(C(=O)N[C@@H](CCC(=O)O)C(=O)O)cc3)ccc2n1` [5,8,10-trideazaaminopterin], the “activity against mouse L1210 leukemia (in words)” value with mouse L1210 leukemia is reported as “exhibits activity”.
With `Nc1nc(N)c2nc(CCc3ccc(C(=O)N[C@@H](CCC(=O)O)C(=O)O)cc3)cnc2n1` [10-Deaza-aminopterin], the “antimetabolic activity (in words)” value in data set [5] is listed as “highly active”.
For `Nc1nc2c(c(=O)[nH]1)NC(CNc1ccc(C(=O)N[C@@H](CCC(=O)O)C(=O)O)cc1)CN2` (some centres unmarked) [FH4], the “Rel Vmax” value in data set [6] is on record as 1.31 ± 0.07.
For `Nc1nc(N)c2cc(CCc3ccc(C(=O)N[C@@H](CCC(=O)O)C(=O)O)cc3)cnc2n1` [Compound 1, N-(4-[2(2,4-diaminopyrido[2,3-d]-pyrimidin-6-yl)ethyl]benzoyl)-L-glutamic acid], the figures for the IC50 in data set [1] and in data set [3] were 17 nM and 43 nM, respectively. In addition, the “Rel Vmax” value in [2] (setting [10]) is 0.35 ± 0.02. The “% ILS” value in the data set with L-1210 leukemia (dose 4 mg/kg) worked out at 130%.
Take `Nc1nc(N)c2c(n1)NCC(CCc1ccc(C(=O)N[C@@H](CCC(=O)O)C(=O)O)cc1)C2` (stereo partly drawn) [Compound 3, N-(4-[2-(2,4-diamino-5,6,7,8-tetrahydropyrido[2,3-d]pyrimidin-6-yl)ethyl]benzoyl)-L-glutamic acid]: the IC50 in [1] amounted to 3.3 nM; in [3], 71 nM. The “Rel Vmax” value in [2] (setting [10]) turned out to be 1.61 ± 0.05. In the data set on L-1210 leukemia (dose 1 mg/kg), the “% ILS” value came to 111%.
Turning to `Nc1nc2ncc(CNc3ccc(C(=O)N[C@@H](CCC(=O)O)C(=O)O)cc3)cc2c(=O)[nH]1` [5-Deazafolic acid], the “cytotoxicity (in words)” value in data set [7] is recorded as “only weakly cytotoxic”.
`Nc1nc2c(c(=O)[nH]1)CC(CCc1ccc(C(=O)N[C@@H](CCC(=O)O)C(=O)O)cc1)CN2` (stereo partly drawn) [Compound 4, N-(4-[2-(2-amino-4-hydroxy-5,6,7,8-tetrahydropyrido[2,3-d]pyrimidin-6-yl)ethyl]benzoyl)-L-glutamic acid]: the “% INHIBITION” value was 91% and 100% with 6C3HED Lymphosarcoma; 100% in [8]; 98% and 99% and 100% with B-16; 58% and 77% and 94% and 100% in the data set on Lewis Lung Carcinoma; 86% and 100% in [9]; 54% and 72% and 87% and 90% with Madison Lung. Also, the “Rel Vmax” value in data set [2] is recorded as 1.24 ± 0.10. The “Mean Increased Life span in days” value is recorded as “+8 days” in [4] (2 mg/kg), “+11 days” in data set [4] (4 mg/kg), “+17 days” in data set [4] (8 mg/kg) and “+25 days” in data set [4] (12 mg/kg). Moreover, the “toxicity (footnote)” value in data set [8] is “† Toxic”. The “activity against L-1210 leukemia (in words)” value in the data set with L-1210 leukemia (in vivo) is given as “good activity”. In addition, the “% ILS” value in the data set with L-1210 leukemia (in vivo, 2 mg/kg) stood at 27%; in the data set with L-1210 leukemia (in vivo, 4 mg/kg) it was 35%; in the data set with L-1210 leukemia (in vivo, 8 mg/kg) it was 59%; with L-1210 leukemia (in vivo, 12 mg/kg), 63%. In addition, the “inhibition of dihydrofolate reductase (in words)” value in data set [3] is listed as “weak inhibitor”.
Turning to `Nc1nc(N)c2nc(CCc3ccc(C(=O)N[C@@H](CCC(=O)O)C(=O)O)cc3)ccc2n1` [8,10-Dideazaaminopterin], the “antimetabolic activity (in words)” value in [5] is “active”.
On to `Nc1nc2ncc(CCc3ccc(C(=O)N[C@@H](CCC(=O)O)C(=O)O)cc3)nc2c(=O)[nH]1` [10-deazafolic acid], for which the “antimetabolic activity (in words)” value in [5] is recorded as “no significant activity”.
